Test results taken from article PMC10218498, “Exploring BenzylethoxyAryl Urea Scaffolds for Multitarget Immunomodulation Therapies” (International Journal of Molecular Sciences, 2023).
Like-named read-outs stand apart in the source and are kept apart here.

Key:
[1] = system: HT-29 (colon adenocarcinoma); experiment: MTT cell proliferation assay, HT-29; assay type: cell-based, human; conditions: for IC50: Homo sapiens, read-out: IC50 HT-29; for SI (HT-29) (IC50HEK293/IC50HT-29): selectivity index
Description: (§1) The 3-(4,5-dimethylthiazol-2-yl)-2,5-diphenyltetrazolium bromide (MTT; Sigma Chemical Co.) dye reduction assay in 96-well microplates was used. […] After that, the supernatant was discarded and replaced by 100 µL of DMSO to dissolve formazan crystals. The absorbance was then read at 550 nm by spectrophotometry. For all concentrations of compound, cell viability was expressed as the percentage of the ratio between the mean absorbance of treated cells and the mean absorbance of untreated cells. Three independent experiments were performed, and the IC50 values (i.e., concentration half inhibiting cell proliferation) were graphically determined using GraphPad Prism 4 software.

[2] = system: MCF-7 (Human breast cancer adenocarcinoma); experiment: MTT cell proliferation assay, MCF-7; assay type: cell-based; conditions: for IC50: Homo sapiens; for SI (MCF-7): selectivity index vs HEK-293
Description: as §1

[3] = target: PD-L1 (Homo sapiens, UniProt Q9NZQ7); experiment: PD-L1 relative quantification by flow cytometry in HT-29; assay type: cell-based; set-up: endogenous in cells; host or cells: HT-29; conditions: 24 h; for Total PD-L1 (%): relative to DMSO control = 100; for inhibition at 20 µM: read-out: inhibition rate of PD-L1
Description: To assess the effect of the selected compounds on the biological targets PD-L1 and VEFGR-2, we performed the study on both cancer cell lines HT-29 and A-549 and by flow cytometry technique. […] For these assays, cells were incubated for 24 h in the presence of the corresponding compounds at 20 µM concentration.
To study the effect of the compounds on every biological target in cancer cell lines, the compounds were used at 20 µM dose.
For the assay, 10^5 cells per well were incubated for 24 h with the corresponding dose of the tested compound in a total volume of 500 μL of their growth media.
On the one hand, to detect total PD-L1 and VEGFR-2, after the cell treatments, they were collected and fixed with 4% in PBS paraformaldehyde. After fixation, a treatment with 0.5% in PBS TritonTM X-100 was performed, and finally, cells were stained with FITC Mouse monoclonal Anti-Human VEGFR-2 (ab184903) and Alexa Fluor® 647 Rabbit monoclonal Anti-PD-L1 (ab215251).
On the other hand, to detect membrane PD-L1 and VEGFR-2, the process was the same, avoiding the treatment with 0.5% in PBS TritonTM X-100 step.

[4] = system: HMEC-1 microtube formation; experiment: Tube formation inhibition assay on Matrigel; assay type: cell-based, human; conditions: HMEC-1 on Matrigel, 24 h
Description: The capacity to inhibit the formation of a new vasculature network formed by HMEC-1 was evaluated on compounds 8 and 14 at different concentrations.
Wells of an IBIDI μ-slide angiogenesis (IBIDI, Martinsried, Germany) were coated with 15 μL of Matrigel® (10 mg/mL, BD Biosciences) at 4 °C. After gelatinization at 37 °C for 30 min, HMEC-1 cells were seeded at 2 × 10^4 cells/well in 25 μL of culture medium on top of the Matrigel and were incubated 30 min at 37 °C while are attached. Then, compounds were added and dissolved in 25 μL of culture medium, and after 24 h of incubation at 37 °C, tube formation was evaluated.

[5] = MCF7, MTT, read-out: IC50 (μM) MCF-7

Chain of PD-L1 (Q9NZQ7 19-290): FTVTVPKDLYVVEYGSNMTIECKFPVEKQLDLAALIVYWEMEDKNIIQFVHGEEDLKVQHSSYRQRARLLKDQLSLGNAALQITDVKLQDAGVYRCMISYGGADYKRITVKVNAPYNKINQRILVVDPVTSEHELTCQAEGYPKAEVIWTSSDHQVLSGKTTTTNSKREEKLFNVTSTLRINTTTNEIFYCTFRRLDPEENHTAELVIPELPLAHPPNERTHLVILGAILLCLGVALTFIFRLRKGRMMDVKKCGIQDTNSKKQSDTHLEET

IC50 ([1]; HT-29, MTT, 48 h of treatment)	melting point	IC50 [2, 5]	Total PD-L1 (%) ([3]; HT-29, 20 µM)	inhibition at 20 µM ([3]; HT-29, HT-29, 20 µM)	inhibition rate of PD-L1 ([3]; HT-29, 20 µM)	SMILES	SI (HT-29) (IC50HEK293/IC50HT-29) [1]	SI (MCF-7) [2]	Minimum Active Conc. (inhibition of microtube formation) [4]	IC50 ([1]; HT-29, 48 h)	IC50 ([2]; MCF7, read-out: IC50 (μM) MCF-7)	inhibition at 20 µM ([3]; HT-29, 20 µM)
11 ± 1 µM		1.3 ± 0.4 µM	40 ± 2%	~60%		COc1ccc(COc2cccc(NC(=O)Nc3ccc(Br)cc3)c2)cc1 [Compound 8]	>9	>77	20 µM			
2 ± 1.2 µM		> 200 µM	118 ± 3%		no inhibitory effect	COc1ccc(COc2cccc(NC(=O)Nc3ccc(OC)cc3)c2)cc1 [Compound 11]	>50					

The remaining lines, values behind:

SMILES	IC50 ([1]; HT-29, MTT, 48 h of treatment)	melting point	IC50 [2, 5]	Total PD-L1 (%) ([3]; HT-29, 20 µM)	inhibition at 20 µM ([3]; HT-29, HT-29, 20 µM)	inhibition rate of PD-L1 ([3]; HT-29, 20 µM)	SI (HT-29) (IC50HEK293/IC50HT-29) [1]	SI (MCF-7) [2]	Minimum Active Conc. (inhibition of microtube formation) [4]	IC50 ([1]; HT-29, 48 h)	IC50 ([2]; MCF7, read-out: IC50 (μM) MCF-7)	inhibition at 20 µM ([3]; HT-29, 20 µM)
COc1ccc(COc2cccc(NC(=O)Nc3ccc(F)cc3)c2)cc1 [Compound 2]	5.5 ± 1.2 µM	201 to 205 °C	0.17 ± 0.03 µM	71 ± 15%	~50%		>18	>580				
Cc1c(COc2ccc(CN3CCCCC3C(=O)O)cc2Br)cccc1-c1ccccc1 (stereo not shown) [BMS-8, reference compound]	19 ± 2 µM		20 ± 3 µM	82 ± 21%			3	3				
COc1ccc(COc2cccc(NC(=O)Oc3ccccc3)c2)cc1 [Compound 14]				68 ± 5%			>15	>5	20 µM	6.8 ± 0.5 µM	20 ± 9 µM	~40%
